From ChEMBL document CHEMBL1201862, “PubChem BioAssay data set” (2004)
The source made the active and inactive calls.

Assays:
[1] = target: T1, Calpain-2 catalytic subunit (Sus scrofa, UniProt P43367); assay: pig calpain II inhibitor potency, dose response, biochemical, fluorogenic peptide substrate (AID 1420); type: functional
T1 sequence (P43367 whole entry): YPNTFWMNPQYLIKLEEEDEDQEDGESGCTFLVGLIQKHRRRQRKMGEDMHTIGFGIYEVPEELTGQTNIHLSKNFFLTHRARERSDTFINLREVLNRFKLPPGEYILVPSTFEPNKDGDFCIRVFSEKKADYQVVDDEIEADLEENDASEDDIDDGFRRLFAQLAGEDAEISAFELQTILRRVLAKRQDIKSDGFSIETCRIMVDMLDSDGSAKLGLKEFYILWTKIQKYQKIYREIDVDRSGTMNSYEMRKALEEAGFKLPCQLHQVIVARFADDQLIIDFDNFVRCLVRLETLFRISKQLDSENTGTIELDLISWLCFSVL

[2] = target: T2, Sentrin-specific protease 6 (Homo sapiens, UniProt Q9GZR1); type: functional;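 also: Luminescence-based dose-response confirmatory assay of SENP6 inhibition, following up an ultra-high-throughput screen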
T2 sequence (Q9GZR1 whole entry): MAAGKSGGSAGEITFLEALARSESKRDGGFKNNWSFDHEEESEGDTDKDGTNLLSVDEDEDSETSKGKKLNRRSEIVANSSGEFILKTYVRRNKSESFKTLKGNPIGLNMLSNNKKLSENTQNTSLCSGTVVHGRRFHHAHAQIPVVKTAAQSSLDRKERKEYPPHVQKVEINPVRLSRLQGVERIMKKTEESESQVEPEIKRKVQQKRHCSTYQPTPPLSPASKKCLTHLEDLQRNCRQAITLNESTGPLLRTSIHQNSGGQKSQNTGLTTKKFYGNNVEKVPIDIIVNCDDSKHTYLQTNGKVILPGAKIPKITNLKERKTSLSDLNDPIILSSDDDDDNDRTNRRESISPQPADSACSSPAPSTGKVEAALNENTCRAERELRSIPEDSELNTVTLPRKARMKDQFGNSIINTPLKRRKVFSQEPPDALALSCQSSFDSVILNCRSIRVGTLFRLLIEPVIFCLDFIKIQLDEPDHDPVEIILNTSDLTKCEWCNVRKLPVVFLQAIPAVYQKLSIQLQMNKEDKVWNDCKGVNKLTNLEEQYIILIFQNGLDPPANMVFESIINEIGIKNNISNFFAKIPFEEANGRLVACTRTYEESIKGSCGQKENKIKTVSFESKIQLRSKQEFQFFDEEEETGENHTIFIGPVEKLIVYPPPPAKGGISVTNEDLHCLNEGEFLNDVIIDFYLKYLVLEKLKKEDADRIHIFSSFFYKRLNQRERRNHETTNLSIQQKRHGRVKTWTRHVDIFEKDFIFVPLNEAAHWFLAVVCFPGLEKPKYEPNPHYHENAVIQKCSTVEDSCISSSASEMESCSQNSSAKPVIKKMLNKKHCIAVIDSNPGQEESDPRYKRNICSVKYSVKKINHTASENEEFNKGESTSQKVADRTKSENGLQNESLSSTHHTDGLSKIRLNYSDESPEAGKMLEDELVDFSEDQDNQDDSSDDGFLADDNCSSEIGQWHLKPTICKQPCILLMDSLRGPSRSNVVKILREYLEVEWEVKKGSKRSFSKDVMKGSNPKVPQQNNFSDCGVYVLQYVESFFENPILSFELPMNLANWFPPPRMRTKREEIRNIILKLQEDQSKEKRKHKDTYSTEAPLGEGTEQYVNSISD

Caspase-3 = target: T3, Caspase-3 (Homo sapiens, UniProt P42574); type: functional;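 also: Dose-response selectivity test against caspase-3 for candidate inhibitors of sentrin-specific proteases (SENPs)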
T3 sequence (P42574 whole entry): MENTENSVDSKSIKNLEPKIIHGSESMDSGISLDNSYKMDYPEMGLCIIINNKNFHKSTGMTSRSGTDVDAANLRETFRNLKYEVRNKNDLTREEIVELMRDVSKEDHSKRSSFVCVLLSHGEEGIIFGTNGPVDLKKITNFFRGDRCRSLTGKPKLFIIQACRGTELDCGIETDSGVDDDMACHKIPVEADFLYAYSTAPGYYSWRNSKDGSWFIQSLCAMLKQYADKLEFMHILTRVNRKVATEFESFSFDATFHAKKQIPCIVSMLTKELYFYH

[3] = A Cell Based Secondary Assay To Explore Cytotoxicity of Compounds that Sensitize Mycobacterium Tuberculosis to Beta-Lactam Antibiotics.; type: functional
[4] = target: T4, Sentrin-specific protease 8 (Homo sapiens, UniProt Q96LD8); type: functional;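 also: luminescence read-out of SENP8 inhibition, dose-response confirmation following an ultra-high-throughput screen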
T4 sequence (Q96LD8 whole entry): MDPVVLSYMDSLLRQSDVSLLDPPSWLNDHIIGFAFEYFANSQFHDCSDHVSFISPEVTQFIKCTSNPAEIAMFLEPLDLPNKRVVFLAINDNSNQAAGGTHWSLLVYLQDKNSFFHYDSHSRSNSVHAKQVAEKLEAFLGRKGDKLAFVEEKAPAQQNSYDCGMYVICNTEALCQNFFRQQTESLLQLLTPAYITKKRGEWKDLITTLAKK

[5] = target: T5, Sentrin-specific protease 7 (Homo sapiens, UniProt Q9BQF6); type: functional;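 also: Luminescence-based dose-response confirmation of ultra-high-throughput screening hits, measuring inhibition of SENP7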
T5 sequence (Q9BQF6 whole entry): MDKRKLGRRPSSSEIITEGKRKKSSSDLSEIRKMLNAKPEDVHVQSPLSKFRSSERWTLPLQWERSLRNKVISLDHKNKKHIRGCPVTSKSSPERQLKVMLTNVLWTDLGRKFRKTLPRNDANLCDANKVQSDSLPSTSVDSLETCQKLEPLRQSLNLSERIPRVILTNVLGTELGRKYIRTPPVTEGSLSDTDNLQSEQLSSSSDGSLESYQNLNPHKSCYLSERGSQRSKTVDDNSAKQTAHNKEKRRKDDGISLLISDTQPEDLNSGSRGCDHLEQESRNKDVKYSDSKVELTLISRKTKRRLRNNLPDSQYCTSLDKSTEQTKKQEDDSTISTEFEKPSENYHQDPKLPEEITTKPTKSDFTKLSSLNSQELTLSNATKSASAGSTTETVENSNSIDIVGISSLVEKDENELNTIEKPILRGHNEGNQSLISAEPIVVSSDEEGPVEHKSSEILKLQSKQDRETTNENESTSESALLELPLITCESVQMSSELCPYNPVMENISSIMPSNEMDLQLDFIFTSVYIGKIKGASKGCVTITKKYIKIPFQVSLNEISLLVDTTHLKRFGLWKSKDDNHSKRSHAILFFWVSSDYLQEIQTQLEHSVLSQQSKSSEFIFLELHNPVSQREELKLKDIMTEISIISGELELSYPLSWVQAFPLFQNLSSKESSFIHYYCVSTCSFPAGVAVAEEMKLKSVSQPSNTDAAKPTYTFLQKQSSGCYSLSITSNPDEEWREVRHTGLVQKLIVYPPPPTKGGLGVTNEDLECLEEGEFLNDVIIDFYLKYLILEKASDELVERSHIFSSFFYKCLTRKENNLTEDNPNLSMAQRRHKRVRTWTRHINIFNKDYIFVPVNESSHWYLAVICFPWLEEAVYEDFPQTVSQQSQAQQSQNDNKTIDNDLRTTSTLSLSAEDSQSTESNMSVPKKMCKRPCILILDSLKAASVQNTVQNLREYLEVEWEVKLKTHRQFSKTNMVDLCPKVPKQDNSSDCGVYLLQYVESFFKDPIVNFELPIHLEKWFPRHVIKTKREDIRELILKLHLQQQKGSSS

[6] = target: FAD-linked sulfhydryl oxidase ALR (Homo sapiens, UniProt P55789); assay: inhibitors of human ALR sulfhydryl oxidase, dose response, biochemical, H2O2 detection, luminescence, cherry-pick (AID 493248)
Chain of FAD-linked sulfhydryl oxidase ALR (P55789 whole entry): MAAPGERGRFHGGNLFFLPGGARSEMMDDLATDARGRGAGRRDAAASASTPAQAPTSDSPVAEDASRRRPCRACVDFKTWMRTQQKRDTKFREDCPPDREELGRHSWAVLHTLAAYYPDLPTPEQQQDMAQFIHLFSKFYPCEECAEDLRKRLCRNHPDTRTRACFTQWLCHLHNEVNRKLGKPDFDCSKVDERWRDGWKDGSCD

[7] = target: T6, Rac GTPase-activating protein 1 (Homo sapiens, UniProt Q9H0H5); assay: MgcRacGAP GTPase-activating activity inhibitors, confirmation, biochemical, ADP Hunter fluorescence, primary and confirmatory (AID 624330); type: functional
T6 sequence (Q9H0H5 whole entry): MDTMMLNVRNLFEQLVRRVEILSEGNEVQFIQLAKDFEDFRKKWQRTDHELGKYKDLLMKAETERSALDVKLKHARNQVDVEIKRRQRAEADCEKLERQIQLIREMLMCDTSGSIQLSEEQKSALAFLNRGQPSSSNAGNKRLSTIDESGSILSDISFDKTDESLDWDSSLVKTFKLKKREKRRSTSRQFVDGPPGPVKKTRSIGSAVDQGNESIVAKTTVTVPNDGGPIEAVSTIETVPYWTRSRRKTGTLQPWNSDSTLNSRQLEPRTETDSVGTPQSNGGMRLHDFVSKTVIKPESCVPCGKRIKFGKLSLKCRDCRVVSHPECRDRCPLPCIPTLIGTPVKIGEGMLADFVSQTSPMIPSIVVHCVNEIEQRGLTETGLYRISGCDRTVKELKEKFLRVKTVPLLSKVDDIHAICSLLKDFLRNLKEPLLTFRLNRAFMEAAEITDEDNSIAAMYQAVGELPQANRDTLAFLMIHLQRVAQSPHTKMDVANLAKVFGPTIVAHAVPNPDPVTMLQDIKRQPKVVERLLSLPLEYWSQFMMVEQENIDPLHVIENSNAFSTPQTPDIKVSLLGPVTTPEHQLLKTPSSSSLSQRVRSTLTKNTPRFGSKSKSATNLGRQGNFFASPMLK

[8] = target: T7, Mannose-6-phosphate isomerase (Homo sapiens, UniProt P34949); assay: human PMI inhibitors, high substrate, primary screen, biochemical, fluorescence intensity, high mannose 6-phosphate (AID 1220)
T7 sequence (P34949 whole entry): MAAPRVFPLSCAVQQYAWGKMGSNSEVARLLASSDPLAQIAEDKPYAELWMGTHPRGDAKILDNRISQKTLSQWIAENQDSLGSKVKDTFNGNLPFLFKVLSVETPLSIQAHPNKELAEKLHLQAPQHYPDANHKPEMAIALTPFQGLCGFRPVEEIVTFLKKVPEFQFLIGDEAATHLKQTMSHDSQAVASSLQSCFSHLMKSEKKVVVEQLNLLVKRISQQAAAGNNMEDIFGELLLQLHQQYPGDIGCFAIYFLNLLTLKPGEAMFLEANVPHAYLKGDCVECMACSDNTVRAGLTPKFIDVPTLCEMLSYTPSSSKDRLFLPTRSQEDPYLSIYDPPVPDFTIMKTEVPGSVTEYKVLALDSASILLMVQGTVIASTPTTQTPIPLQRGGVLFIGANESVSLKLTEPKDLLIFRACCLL

[9] = NIH-3T3 fibroblast cytotoxicity, dose response, cytotoxicity control, cell-based, fluorescence, Alamar Blue, secondary assay (AID 2327); type: functional;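 also: NIH-3T3 mouse fibroblasts cultured with fluconazole at 8 µg/mL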
[10] = C. albicans growth with fluconazole, confirmation, fluorescence, retest (AID 2467); type: functional, cell-based
[11] = target: T8, Polyadenylate-binding protein 1 (Homo sapiens, UniProt P11940); assay: PABP1 MLLE–PAM2 interaction inhibitors, dose response, miRNA deadenylation inhibitor project, biochemical, fluorescence polarization, Cy5-PAM2 peptide, secondary (AID 602260); type: functional; details: read-out: IC50_Mean
T8 sequence (P11940 whole entry): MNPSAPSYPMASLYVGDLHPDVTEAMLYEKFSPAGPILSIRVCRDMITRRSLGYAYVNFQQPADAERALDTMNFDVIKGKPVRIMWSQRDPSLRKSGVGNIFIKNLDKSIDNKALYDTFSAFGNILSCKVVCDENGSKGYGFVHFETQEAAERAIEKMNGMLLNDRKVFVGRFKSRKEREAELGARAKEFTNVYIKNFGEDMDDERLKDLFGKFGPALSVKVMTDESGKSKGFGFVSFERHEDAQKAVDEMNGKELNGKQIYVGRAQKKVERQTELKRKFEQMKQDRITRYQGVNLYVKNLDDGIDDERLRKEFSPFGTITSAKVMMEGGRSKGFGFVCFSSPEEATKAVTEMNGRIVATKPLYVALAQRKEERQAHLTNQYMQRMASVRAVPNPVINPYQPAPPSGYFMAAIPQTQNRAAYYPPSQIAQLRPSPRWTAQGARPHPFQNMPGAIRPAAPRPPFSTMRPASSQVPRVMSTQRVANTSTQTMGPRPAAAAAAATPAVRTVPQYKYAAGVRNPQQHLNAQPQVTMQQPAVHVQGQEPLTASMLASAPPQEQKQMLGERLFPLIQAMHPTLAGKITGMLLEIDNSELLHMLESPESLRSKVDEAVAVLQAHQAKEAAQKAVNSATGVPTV

[12] = target: T8, Polyadenylate-binding protein 1; assay: PABP1 MLLE–PAM2 binding inhibitor potency, dose response, biochemical, fluorescence polarization, FITC-PAM2 peptide (AID 602259); type: functional; details: read-out: IC50_Mean
SN12K1 = assay: cells; type: functional; details: Homo sapiens

SMILES: CCOc1ccc(NC(=O)CCC(=O)n2nc(C)cc2C)cc1
- IC50 [1]: < 0.4 µM (not active)

SMILES: COc1ccc(-c2nc(NC(=O)CCNC(=O)c3ccco3)sc2C)cc1
- IC50 [1]: 3.03 µM (not active)

SMILES: Cc1ccc(N(CC(=O)Nc2cccc(C)c2)S(=O)(=O)c2cccc3nonc23)cc1
- IC50 [1]: 1.1 µM (not active)

SMILES: Cc1ccc(O)c(-c2cc(-c3ccccc3F)[nH]n2)c1
- IC50 [2]: 21.9 µM (active)
- IC50 (Caspase-3): 31.9 µM (active)
- CC50 [3]: > 40 µM (active)
- IC50 [4]: 4.59 µM (active)
- IC50 [5]: 3.4 µM (active)

SMILES: Cc1ccc2c(c1)CCCN2C(=O)c1ccc2c(c1)OCO2
- IC50 [1]: > 50 µM (not active)

SMILES: NC(=NOC(=O)c1ccc(Cl)cc1Cl)c1ccc(Cl)cc1
- IC50 [2]: > 100 µM (inactive)
- IC50 (Caspase-3): 35.6 µM (active)
- IC50 [4]: > 100 µM (inactive)
- IC50 [5]: 9.34 µM (active)

SMILES: CN(c1ccc(O)cc1)c1nc(-c2cccnc2)cs1
- AC50 [6]: 3.84 µM (active)
- IC50 [7]: 17.5 µM (active)

SMILES: O=C(O)CCC(=O)N1CCN(c2ccc(C(=O)c3ccc(F)cc3)cc2)CC1
- IC50 [1]: > 50 µM (not active)

SMILES: [O-][S+](N1CCc2ccccc21)C12CC3CC(CC(C3)C1)C2 (stereo not given)
- IC50 [1]: 10.8 µM (not active)

SMILES: Cc1ccc(NCc2ccc(O)c3ncccc23)cc1
- IC50 [8]: > 50 µM (not active)
- EC50 [9]: > 160 µM (inconclusive)
- EC50 [10]: > 38 µM (not active)

SMILES: Cc1ccc(C2SCC(=O)N2c2ccccc2)cc1 (stereo not given)
- AC50 [6]: < 0.005 µM (active)
- IC50 [11]: > 66 µM (inactive)
- IC50 [12]: > 66 µM (inactive)

SMILES: C=C(C)c1sc(-c2ccc(Cl)cc2)nc1C
- IC50 [2]: 21.4 µM (active)
- IC50 (Caspase-3): 13.4 µM (active)
- IC50 [4]: 69.1 µM (active)
- IC50 [5]: 6.67 µM (active)

SMILES: CSCc1ccc(C(=O)N2CCCC(Nc3ccc(F)cc3)C2)o1 (stereo not given)
- AC50 [6]: 2.76 µM (active)

SMILES: O=C(CCc1c[nH]c2ccccc12)NCCc1ccc(O)cc1
- AC50 [6]: 7.62 µM (active)
- IC50 [7]: 112 µM (active)

SMILES: Nc1ccn(C2C=C(CO)C(O)C2O)c(=O)c1 (stereo not given)
- GI50 (SN12K1): > 625 µM (inactive)

SMILES: C/C(=N\OCC(=O)Nc1ccc(Br)cc1)c1cccs1
- IC50 [1]: > 50 µM (not active)

SMILES: CC(=N\Nc1ccc(Cl)cc1)/C(=N/O)C(=O)Nc1ccccc1
- AC50 [6]: 0.104 µM (active)

SMILES: CCN(CC)c1ccc(/C=N/NC(=O)CC(C)C)cc1
- AC50 [6]: 2.97 µM (active)

SMILES: N=C1/C(=N\Nc2ccccc2F)C(=O)NN1c1ccccc1
- IC50 [2]: 2.09 µM (active)
- IC50 (Caspase-3): 16.4 µM (active)
- IC50 [4]: > 100 µM (inactive)
- IC50 [5]: 2.52 µM (active)

SMILES: Nc1nc2ccccc2n1/N=C/c1ccc(Br)cc1
- IC50 [2]: 5.96 µM (active)
- IC50 (Caspase-3): 16.1 µM (active)
- IC50 [4]: 5.66 µM (active)
- IC50 [5]: 4.21 µM (active)

SMILES: C/C(=N\Nc1ccc([N+](=O)[O-])cc1)c1ccc(O)cc1
- AC50 [6]: 0.136 µM (active)
- EC50 [9]: > 150 µM (inactive)
- EC50 [10]: > 38 µM (not active)
